Data reported in patent US6080791A, “Method of treating a viral condition by inhibiting membrane fusion” (priority 1992, dated 2000).
Read-outs that look alike come from different tables or passages of the source.

Biological target: hemagglutinin (BHA), fusion peptide exposure (Influenza A virus (A/X-31(H3N2)), UniProt P03438)
Type: biochemical, C22 / X31 influenza virus (H3N2)

Chain of hemagglutinin (BHA), fusion peptide exposure (Influenza A virus (A/X-31(H3N2)), UniProt P03438) (P03438 whole entry, looked up, the tested form may be a part): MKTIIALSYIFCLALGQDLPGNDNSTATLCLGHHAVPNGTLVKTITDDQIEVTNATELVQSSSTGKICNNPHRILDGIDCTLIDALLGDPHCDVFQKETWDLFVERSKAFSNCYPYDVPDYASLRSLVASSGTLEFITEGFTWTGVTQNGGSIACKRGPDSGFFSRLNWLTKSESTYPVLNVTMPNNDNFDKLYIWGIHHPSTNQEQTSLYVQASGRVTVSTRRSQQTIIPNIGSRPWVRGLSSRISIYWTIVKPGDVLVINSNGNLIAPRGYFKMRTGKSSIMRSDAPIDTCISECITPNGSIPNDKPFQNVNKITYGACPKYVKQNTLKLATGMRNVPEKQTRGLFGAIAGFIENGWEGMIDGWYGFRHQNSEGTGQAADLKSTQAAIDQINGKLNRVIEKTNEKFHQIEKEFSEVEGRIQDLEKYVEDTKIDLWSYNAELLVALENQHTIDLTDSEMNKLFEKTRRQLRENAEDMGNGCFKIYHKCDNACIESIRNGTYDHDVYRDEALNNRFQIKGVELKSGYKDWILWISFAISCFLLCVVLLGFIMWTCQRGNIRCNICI

| Structure (SMILES) | inhibition in the SPA assay (1 μM-1 mM) | activity note in Table 7 (Table 7) | further results |
| --- | --- | --- | --- |
| COC(=O)C1C2C=CC(C2)C1C(=O)OC (stereo not shown) [Compound 85, dimethylbicyclo[2.2.1]-5-heptene-2,3-dicarboxylate] | showed no inhibition |  |  |
| O=C(O)C1C2C=CC(O2)C1C(=O)O (stereo not shown) [Compound 86, 3,6-endoxo-1,2,3,6-tetrahydrophthalic acid] | showed no inhibition | inactive |  |
| COC(=O)C1C2C=CC(C2)C1C(=O)O (stereo not shown) [Compound 87, 5-norbornene-2,3-dicarboxylic acid monomethyl ester] | showed no inhibition |  |  |
| CC(=O)OC1CC2CC1C1C3C=CC(C3)C21 (stereo not shown) [Compound 88, 1,2,3,4,4A,5,8,8A-octahydro-1,4:5,8-dimethanonaphth-2-yl acetate] | showed no inhibition | inactive |  |
| O=C(O)[C@@H]1[C@H](C(=O)O)[C@@H]2C=C[C@H]1C2 [Compound 89, cis-5-norbornene-endo-2,3-dicarboxylic acid] | showed no inhibition | inactive |  |
| ClC1(Cl)C2CC3C4C=CC(C4)C3C21 (stereo not shown) [Compound 92, 5,5-dichlorotetracyclo-[6.2.1.0,2,7.0.4.6] undec-9-ene] | showed no inhibition |  |  |
| O=C1C2C3C=CC(C3)C2C(=O)N1O (stereo not shown) [Compound 94, N-hydroxy-5-norbornene-2,3-dicarboximide] | showed no inhibition | inactive |  |
| CN1C(=O)C2C3C=CC(C3)C2C1=O (stereo not shown) [Compound 95, N-methyl-5-norbornene-2,3-dicarboximide] | showed no inhibition | inactive |  |
| OC1CC2CC1C1C3C=CC(C3)C21 (stereo not shown) [Compound 96, 1,2,3,4,4A,5,8,8A-octahydro-1,4:5,8-dimethano-2-naphthol] | showed no inhibition |  |  |
| O=C(O)C1C2C=CC(C2)C1C(=O)Nc1ccccc1 (stereo not shown) [Compound 98, 3-(N-phenylcarbamoyl)-5-norbornen-2-carboxylic acid] | showed no inhibition |  |  |
| O=C1NC(=O)c2ccccc21 [Compound 100, phthalimide] | showed no inhibition | inactive |  |
| N#Cc1c(O)ccc(O)c1C#N [Compound 103, 2,3-dicyanohydroquinone] | showed no inhibition | inactive |  |
| Oc1ccc(O)cc1 [Compound 104, hydroquinone] |  |  | activity note in Table 7: inactive; inhibition in the SPA assay: showed no inhibition |
| Oc1cccc2ccccc12 [Compound 106, 1-naphthol] | showed no inhibition | inactive |  |
| O=c1[nH][nH]c(=O)c2ccccc12 [Compound 108, phthalhydrazide] | showed no inhibition | inactive |  |
| OC1=CCC2C3C=CC(C3)C12 (stereo not shown) [Compound 109, hydroxydicyclopentadiene] | showed no inhibition | inactive |  |
| Cl.N=C(N)Sc1cc(O)ccc1O [Compound 112, 2-(2,5-dihydroxyphenyl)-2-thiopseudourea hydrochloride] |  |  | % inhibition, sample: 40.1% |
| CC1=CC(=O)c2ccccc2C1=O [Compound 118, 2-methyl-1,4-naphthoquinone] | showed no inhibition | inactive |  |
| CCOC(=O)c1c(C)cc(O)cc1O [Compound 122, ethyl 2,4-dihydroxy-6-methylbenzoate] | showed no inhibition | inactive |  |
| Oc1cccc2cccnc12 [Compound 127, 8-hydroxyquinoline] |  |  | activity note in Table 7: inactive; inhibition in the SPA assay: showed no inhibition |
